Experimental data taken from patent publication US9648880B2, “Antifungal agents and uses thereof” (University of Massachusetts, priority 2012, dated 2017).

Assays:
[1] = tested on: C. albicans hyphae formation; test: filamentation assay (hyphal morphogenesis); assay type: cell-based, Candida albicans; conditions: for inhibition of hyphal formation and induction of RFP: 12.5 μM, Spider media 16 hours, HWP1-RFP reporter; for formation of hyphae: Spider media, HWP1-RFP reporter (Example 14)
From the text: Because the ability to interconvert between yeast and hyphal morphologies is usually correlated with pathogenicity (Finkel, 2010), we explored this observation in more detail. First, we assessed the effect of our compounds on the induction of hyphae by “Spider” media (Chauhan, 2009). For this experiment, we used a strain that contains the hyphal-specific HWP1 promoter to the Red Fluorescent Protein (RFP) open reading frame (Ganguly, 2011), which provides a molecular reporter for hyphae formation that we used in addition to visual examination of cell morphology. We initially tested each of the compounds that inhibit adhesion to polystyrene (FIG. 1B), as well as compounds #9, Q1 and Q2 (FIG. 3A), at concentration of 12.5 μM. […] Compounds Q1 and Q2 share a “Scaffold 1” backbone with compounds #4 and #9, but contain a quinoline group (FIG. 3A). Therefore, the compounds with a quinoline group can inhibit hyphae formation, but not adhesion to polystyrene or human cells (FIG. 3). […] Additionally, multiple chemical backbones are able to inhibit hyphae formation, because compound #12 has a “Scaffold 2” backbone (Table 2). To better discriminate the inhibitory compounds, we tested #4, 12 and Q1 at lower concentrations. […] Furthermore, as in the polystyrene adhesion assay (FIG. 8), compound #4 is effective at inhibiting hyphae formation at concentrations >2.5 μM.
Overnight cultures of SC5314 or SGH584 were pregrown in uridine-supplemented SC media at 30° C. to an OD600>13 and diluted 1:10 into prewarmed Spider medium (1% Peptone (Difco), 1% Mannitol (Sigma) and 0.2% K2HPO4 (Sigma) (Chauhan, 2009) in glass tubes and grown for 16 hrs at 37° C. shaking at 200 rpm in the presence or absence of drugs as indicated. DIC and fluorescence images were acquired using a Zeiss Axiovert 200 inverted microscope equipped with a Qicam 12-bit Fast 1394 digital CCD camera (Qimaging). Image acquisition was carried out using Openlab 5 software (Improvison).
Because the ability to interconvert between yeast and hyphal morphologies is usually correlated with pathogenicity, we explored this in more detail, examining induction of hyphae upon carbon starvation (using Spider media). We used a strain that contains the Red Fluorescent Protein (RFP) open reading frame driven by the hyphal-specific HWP1 promoter (Ganguly et al., Eukaryotic Cell 10:1448, 2011), which provides a molecular reporter for hyphae formation in addition to cell morphology. […] Therefore, the shared backbone of these compounds correlates with inhibition of multiple activities.
Hyphal morphogenesis is induced by multiple stimuli that act via multiple signal transduction pathways and is mediated by a complex transcriptional network. […] We detected morphological difference between control and compound #4-treated cultures as early as 60 minutes in 10% serum, and 90 minutes in Spider media.

[2] = tested on: C. albicans SC5314-GFP biofilm; test: biofilm formation on silicone elastomers; assay type: cell-based, Candida albicans; conditions: for biofilm formation, visual inspection: silicone mesh
Protocol: FIGS. 5A-5C. Effect of small molecules on biofilm formation in vitro. FIG. 5A is a series of photographs showing biofilm formation on silicone elastomers. Biofilm assay was performed with SC5314-GFP and edt1^Δ/Δ-GFP and photographed after 60 hrs. Indicated compounds were added at 50 μM. Turbid medium indicates planktonic cells unattached to silicone elastomers when biofilm formation is inhibited. Clear medium with the cell attached to the silicone elastomer indicate establishment of functional biofilm. Each treatment was done in triplicate. FIG. 5B is a graph showing quantitation of turbidity of medium. Media was removed from the wells, vortexed vigorously and the OD at 600 nm was measured in a spectrophotometer. FIG. 5C is a graph showing quantitation of dry weight of biofilm. Dry weight in mg of air-dried silicone elastomers.
Fungal biofilm formation on implanted medical devices is a serious medical problem because these biofilms can lead to life-threatening systemic infections. An established in vitro assay to study device colonization makes use of silicone mesh as a surrogate surface (Nobile, 2006). We tested how the compounds that affected polystyrene adhesion (FIG. 1) would affect biofilm formation by visual inspection of the biofilms formed, by measuring the optical density of the supernatant liquid cultures, and by measuring their dry weights. […] Therefore, compounds #4 and Q1 were effective inhibitors of both hyphal morphogenesis (FIG. 4) and biofilm formation on silicone mesh (FIG. 5).
We adapted a published method (Nobile, 2006, supra). Autoclaved, pre-weighed silicone mesh squares (Bentec, Catalog Number PR72034-04N) were incubated overnight at 37° C. with undiluted bovine serum. Following washing with PBS, the squares were transferred to 12-well plates and incubated with 0.5 OD/ml SC5314-GFP cells in Spider medium (with or without drugs as indicated), for 90 min at 37° C., shaking at 200 rpm. Squares were washed in PBS and transferred to new 12-well plates containing fresh Spider medium with fresh drugs and incubated for 60 hrs in a 37° C. shaker at 200 rpm. The plates were then photographed, the liquid media were collected for A600 nm measurements, and the dry weights of the bound biofilms were measured following drying of the silicone squares in a chemical hood.

C. albicans SC5314 = test: alamarBlue-based polystyrene adhesion assay; assay type: cell-based, Candida albicans
From the text: We prioritized the candidate compounds by testing the dose-dependence of their effects. Because of the laborious washing required to remove background crystal violet dye staining, we developed adhesion assays using alternative detection reagents. Previous experiments screens have used the vital dye alamarBlue to measure Candida viability (Lafleur, J. Antimicrob Chemother. 66: 820-826, 2011; Youngsaye supra), so we tested this reagent as a way to measure cells remaining adhered after washing. […] The majority of the reordered compounds were effective at reducing Candida adhesion at 50 μM, the concentration originally tested during the screen. […] Although compounds that were still effective at 25 μM were less generally less so at 7.5 μM (FIG. 1C), many candidates still reduced adhesion by >50% at this lower concentration.
Overnight cultures of SC5314 and edt1^−/− cells were grown and plated onto Immulon 2HB 96-well microtiter plates and treated with small molecules as described above. Following incubations, media was decanted and plates were washed twice with 100 μl/well PBS. alamarBlue (Life Technologies) was resuspended to a final concentration of 5% in RPMI buffered with 0.165 M MOPS and then 100 μl was added to each well, followed by further incubation for 2 hours at 37° C. Fluorescence signals at 555Ex/585Em were read using a SpectraMax M5 Plate reader (Molecular Devices).

[3] = tested on: C. elegans infected with C. albicans; test: C. elegans pathogenesis assay; assay type: in vivo, Caenorhabditis elegans; conditions: 12.5 μM
Protocol: We therefore tested whether compound #4 can alter fungal infections in two in vivo settings. First, we performed pathogenesis assays in which nematodes (Caenorhabditis elegans) are infected with C. albicans, resulting in killing of the nematode host (Jain, 2009; Okoli, 2009). We used this assay to test whether compound #4 might have a protective effect, exposing C. elegans to Candida albicans and either DMSO vehicle, the commonly used antifungal drug fluconazole at 12.5 μM, or compound #4 at the same concentration. […] Therefore, consistent with its in vitro activities, compound #4 functions as an antifungal agent in this model infection system.
Three worms in the L3/L4 stage were transferred to each of two NGM agar plates containing E. coli OP50 and grown at 20° C. for four days. On the day of the experiment, worms were washed off the plates with M9 buffer and centrifuged at 900×g for 2 min. The supernatant was removed, and the worms were then resuspended in a bleach solution (1:4 dilution of commercial bleach (5.25%) diluted in 0.25 M sodium hydroxide). The worm suspension was mixed gently by inversion for 3 min, and centrifuged for 2 min at 2,000×g. The pellet containing the eggs was washed with M9 buffer and centrifuged at 2,000×g for 2 min and then resuspended in 500 μl M9 buffer. […]

Compound	inhibition of hyphal formation and induction of RFP [1]	biofilm formation, visual inspection ([2]; 50 μM, 60 hrs)	formation of hyphae [1]	other results
O=C(c1csc2ccccc12)N1CCN(c2ccc(Cl)c(Cl)c2)CC1 [Compound 3]	did not block hyphal formation as efficiently			
Cc1ccc(C(=O)N2CCN(c3ccc(Cl)cc3)CC2)cc1C [Compound 7]	did not block hyphal formation as efficiently	most effectively kept the cells dispersed in the media rather than on the mesh		
Cc1ccc(N2CCN(C(=O)c3ccccc3)CC2)cc1Cl [Compound 8]	did not block hyphal formation as efficiently			
COc1ccc(C(=O)Nc2cccc(Cl)c2)cc1Br [Compound 12]	most potently inhibited hyphal formation and induction of RFP	most effectively kept the cells dispersed in the media rather than on the mesh		synergy on adhesion upon combining compound #4 and compound #12 (C. albicans SC5314; #4 1.5 μM with #12 4 and 6 μM): did not further reduce adhesion; effect on adhesion of compound alone (C. albicans SC5314; compound #4 1.5 μM, compound #12 4 and 6 μM): partial effects; hyphae formation induced by Spider media ([1]; 5 μM): A few hyphae were observed; hyphae formation induced by Spider media ([1]; 10 μM): completely blocked the hyphae formation
CCOc1ccc(NC(=O)c2c(NC(=O)CNCCc3ccccc3)sc3c2CCC3)cc1 [Compound 14]			blocked formation of hyphae	
Cc1cc(C)n(CC(O)Cn2c3ccc(Cl)cc3c3cc(Cl)ccc32)c(=O)n1 (centres unmarked) [Compound 21]		most effectively kept the cells dispersed in the media rather than on the mesh		media density (OD 600 nm) ([2]; 50 μM, 60 hrs): more modest than for the other compounds tested
O=C(NCCC12CC3CC(CC(C3)C1)C2)c1ccc(S(=O)(=O)N2CCOCC2)cc1 [Compound 26]			blocked formation of hyphae	
COc1ccc(N2CCN(C(=O)CCCN3C(=O)c4cccc5cccc(c45)C3=O)CC2)cc1 [Compound 27]			blocked formation of hyphae	biofilm formation on silicone mesh ([2]; Example 14): effective inhibitors of both hyphal morphogenesis and biofilm formation on silicone mesh
OC(Cn1cncn1)(Cn1cncn1)c1ccc(F)cc1F [fluconazole, reference compound]				lifespan of infected worms [3]: increased the lifespan of the infected worms
